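48-hour exposure; five concentrations; linearly interpolated endpoints. At the TGI there is no net growth.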
Tests used:
Assay in all cases: DTP human tumour cell line panel, 48 h
[1] = system: OVCAR-4 ovarian
[2] = system: SF-539 CNS
[3] = system: NCI-H23 lung
[4] = system: HT29 colon
[5] = system: RPMI-8226 leukemia
[6] = system: HL-60(TB) leukemia
[7] = system: NCI-H460 lung
[8] = system: CCRF-CEM leukemia
[9] = system: IGROV1 ovarian
[10] = system: MDA-MB-435

Compound | TGI [1] [µM] | TGI [2] [µM] | TGI [3] [µM] | TGI [4] [µM] | TGI [5] [µM] | TGI [6] [µM] | TGI [7] [µM] | TGI [8] [µM] | TGI [9] [µM] | TGI [10] [µM]
CC1=NN(C(=O)c2ccccc2)C(=O)C1N=Nc1ccccc1C(=O)O (stereo not drawn) | > 55 | > 100 | > 40.6 | > 100 | > 100 | > 33.2 | > 100 | > 50.7 | > 78.1 | 
COc1cc(C2c3cc4c(cc3OC(N3CCOCC3)C2C)OCO4)cc(OC)c1OC (stereo not drawn) | > 100 | 1.69 | 18.2 | 7.51 | > 23.7 |  | 10.2 | > 100 | 47.7 | 0.549
COc1cc(C2c3cc4c(cc3[C@@H](Nc3ccc(N5CCOCC5)cc3)C3COC(=O)[C@H]23)OCO4)cc(OC)c1O (stereo partly drawn) | 25.9 | 2.32 |  | 4.58 | 12.6 | 0.376 | 1.14 | 0.773 | 26 | 
CN1CCN(CCCCNc2cc3c4ccccc4c(NCCCCN4CCN(C)CC4)cc3c3ccccc23)CC1 | 2.87 | 3.28 |  | 4.19 | 4.14 | 14.9 | 3.2 | 3.07 | 5.52 | 0.359
Cn1nc2ccc3nccc(NCCNCCCl)c3c2n1 | > 100 | > 100 |  | > 100 | > 100 | > 100 | > 100 | > 100 | > 100 | 
CCOC(=O)c1[nH]n(-c2ccccc2)c(=O)c1C=NC(=S)C(N)=S | > 100 | 57.4 | > 100 | > 100 |  | > 100 | > 100 | > 100 | > 100 | > 100
CNc1nc(=O)c(C#N)c(-c2ccc(C)cc2)s1 | > 100 | > 100 | > 100 | > 100 |  | > 100 | > 100 | > 100 | > 100 | > 100
FC(F)(F)c1nc2cc(SSc3cc4nc(C(F)(F)F)[nH]c4cc3Cl)c(Cl)cc2[nH]1 | > 100 | > 100 | > 100 | > 100 | > 100 | > 100 | > 100 |  | > 100 | > 100
CC(=O)O[C@H]1CC[C@H]2[C@@H]3CC[C@H]4Nc5c(cnn5S(C)(=O)=O)C[C@]4(C)[C@H]3CC[C@]12C | > 100 |  | > 100 | > 100 | > 100 | > 100 | > 100 | > 100 | > 100 | > 100
N/C(=N\N=C/c1cc(Cl)cc(Cl)c1O)NO | 20.9 | 8.34 | 19.8 | > 62.7 | 39.9 | 0.694 | 14.2 |  | 44.3 | 
COc1ccc2c(c1)Cc1c-2[nH]c2cc3c(cc2c1=O)OCO3 | > 100 | 30.6 | 48.2 | 19.9 | 35.8 | 29.2 | 35 | 39.1 | 59.5 | 
CC(C)=CCC[C@@H](C)C1=C(O)C(Nc2ccccc2F)=C(C)C(=O)C1=O | > 100 |  | > 56.8 | > 100 | > 89.1 | 5.61 | > 100 | 5.86 | > 69.5 | > 100
CCN(CC)CCNc1ccc2nnn3c4ccc(OC(C)=O)cc4c(=O)c1c23 | 8.73 | 9.47 | 18.9 | 11.4 | 5.56 |  | 11.5 | 3.2 | 6.38 | 18
COC(=O)C(Cc1ccccc1)NC(=O)C(CCCN=C(N)N)NC(=O)OCc1ccccc1 (stereo not drawn) | > 100 |  | > 100 | > 100 | > 100 | > 100 | > 100 | > 100 | > 100 | > 100
CC(=O)C1C(=O)C(=O)N(c2ccc([N+](=O)[O-])cc2Cl)C1=O (stereo not drawn) | > 100 | > 100 | > 100 | > 100 |  | > 100 | > 100 | > 100 | > 100 | > 100
COc1ccc(CCNC(=S)/N=C\C2=C(O)c3ccccc3C2=O)cc1OC | > 100 | > 100 | > 100 | > 100 | > 100 | > 100 |  | > 100 | > 100 | > 100
CC[S+](C)c1ccc(-c2c3nc(c(-c4ccc([S+](C)CC)cc4)c4ccc([nH]4)c(-c4ccc([S+](C)CC)cc4)c4nc(c(-c5ccc([S+](C)CC)cc5)c5ccc2[nH]5)C=C4)C=C3)cc1 (stereo not drawn) | > 100 | > 100 | > 100 | > 100 | 41 | 49.9 | > 100 | > 100 |  | 
CCOC(=O)c1ccc2c(=O)n3c(C(=O)OCC)ccc3c(=O)n12 | > 100 |  | > 100 | > 100 | > 100 | > 100 | > 100 | > 100 | > 100 | > 100
C[n+]1c(-c2ccc(/C=N/Nc3n[nH]c(=S)n3N/N=C/c3ccc(-c4cn5ccccc5[n+]4C)cc3)cc2)cn2ccccc21 | > 100 | > 100 |  | > 100 | > 100 | > 100 | > 100 | > 100 | > 100 | > 100
Cc1cc(O)c(/C=N/C(=O)NN)c(=O)o1 | > 100 | > 100 | > 100 |  |  |  | > 100 | > 100 | > 100 | > 100
CCOC(=O)CC(=Nc1cc(C)on1)N(CC)CC |  | > 100 | > 100 | > 100 | > 100 |  | > 100 | > 100 | > 100 | 
CCN(CC)CCNC(=O)c1cc2cc(NC(=O)c3cc4cc(NC(=O)c5cc6cc([N+](=O)[O-])ccc6[nH]5)ccc4[nH]3)ccc2[nH]1 | > 100 |  | > 100 | > 100 | > 100 |  | > 100 | 67.3 | > 100 | > 100
N#CCCCCC12C3C(=O)N(c4ccccc4)C(=O)C3ON1O[C@@H]1C(=O)N(c3ccccc3)C(=O)[C@@H]12 (stereo partly drawn) | > 100 | > 100 | > 100 | > 100 |  | > 100 | > 100 | > 100 | > 100 | > 100

Source: PubChem BioAssay (NCI)
